# Data published in patent publication US20250281453A1, “COMBINATION THERAPIES COMPRISING QTX125” (QUIMATRYX, S.L., priority 2022, published 2025).
# Key:
# [1] = Pharmacokinetic properties; type: in vivo; conditions: compared with other histone deacetylase inhibitors
# [2] = test system: multiple sclerosis mice models; conditions: two different multiple sclerosis mice models; cited from earlier work
# [3] = Genotoxicity (clastogenicity, aneugenicity); conditions: unlike other histone deacetylase inhibitors
# HDAC 6 = target: T1, HDAC 6 (Homo sapiens, UniProt Q9UBN7); conditions: cited from earlier work
# T1 sequence (Q9UBN7 1-1215): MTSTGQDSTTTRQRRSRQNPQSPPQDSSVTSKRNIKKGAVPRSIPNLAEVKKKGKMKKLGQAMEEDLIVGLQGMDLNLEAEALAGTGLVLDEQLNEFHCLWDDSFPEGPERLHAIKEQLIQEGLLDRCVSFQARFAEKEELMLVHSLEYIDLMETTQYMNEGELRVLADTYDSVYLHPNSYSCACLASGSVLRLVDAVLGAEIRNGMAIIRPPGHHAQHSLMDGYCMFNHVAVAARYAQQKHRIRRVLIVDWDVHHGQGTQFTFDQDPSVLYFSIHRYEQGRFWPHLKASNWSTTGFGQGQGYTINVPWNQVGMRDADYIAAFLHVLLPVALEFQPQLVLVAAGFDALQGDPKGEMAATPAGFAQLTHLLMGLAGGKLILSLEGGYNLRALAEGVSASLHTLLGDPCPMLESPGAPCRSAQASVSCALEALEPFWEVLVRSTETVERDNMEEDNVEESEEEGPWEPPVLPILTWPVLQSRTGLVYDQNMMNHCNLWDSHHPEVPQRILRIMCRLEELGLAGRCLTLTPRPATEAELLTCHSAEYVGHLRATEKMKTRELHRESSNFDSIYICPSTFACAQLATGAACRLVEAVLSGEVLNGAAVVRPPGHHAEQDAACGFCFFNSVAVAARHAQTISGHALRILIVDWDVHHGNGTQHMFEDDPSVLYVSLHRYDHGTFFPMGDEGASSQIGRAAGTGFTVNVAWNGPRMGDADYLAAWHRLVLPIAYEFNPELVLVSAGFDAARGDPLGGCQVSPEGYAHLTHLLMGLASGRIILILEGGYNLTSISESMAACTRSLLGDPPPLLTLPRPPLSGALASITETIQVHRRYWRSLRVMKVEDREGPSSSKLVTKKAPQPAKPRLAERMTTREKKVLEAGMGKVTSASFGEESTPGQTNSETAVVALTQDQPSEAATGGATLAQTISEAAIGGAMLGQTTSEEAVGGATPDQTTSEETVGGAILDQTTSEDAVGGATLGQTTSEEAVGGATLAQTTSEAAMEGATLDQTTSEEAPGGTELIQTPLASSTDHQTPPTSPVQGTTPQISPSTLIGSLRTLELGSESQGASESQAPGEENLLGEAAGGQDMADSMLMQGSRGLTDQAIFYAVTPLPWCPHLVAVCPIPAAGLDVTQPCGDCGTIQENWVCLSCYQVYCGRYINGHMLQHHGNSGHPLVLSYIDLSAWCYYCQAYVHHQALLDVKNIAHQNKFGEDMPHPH
# [4] = test system: mantle cell lymphoma, lung cancer and pancreatic cancer xenografts; conditions: lung cancer and pancreatic cancer xenograft murine models; cited from earlier work
smiles,measurement,setting,value
"O=C(NO)c1ccc(CNC(=O)c2[nH]c(-c3ccc(O)cc3)cc2-c2ccoc2)cc1 [QTX125, 3-(3-Furyl)-N-{4-[(hydroxyamino)carbonyl]benzyl}-5-(4-hydroxyphenyl)-1 Hpyrrole-2-carboxamide]",pharmacokinetic properties (half-lives and distribution volumes),[1],higher half-lives and distribution volumes
same,efficacy in multiple sclerosis mice models,[2],high efficacy
same,"genotoxicity, in particular clastogenicity or aneugenicity",[3],no evidence of genotoxicity
same,HDAC 6 inhibition,HDAC 6,highly selective and highly potent
same,antitumoral efficacy,[4],high antitumoral efficacy
